Results reported in patent US9316913B2, “Underlayer film-forming material for lithography, underlayer film for lithography, and pattern formation method” (MITSUBISHI GAS CHEMICAL COMPANY, INC., priority 2011, dated 2016).

Columns and labels:
[1] = Solubility in PGME and PGMEA; format: physicochemical; conditions: 23° C.
Description: Herein, the solubility in PGME or PGMEA is defined as “Mass of resin/(Mass of resin+Mass of solvent)×100 (% by mass)”.
The amount of each compound dissolved in 1-methoxy-2-propanol (PGME) and propylene glycol monomethyl ether acetate (PGMEA) was measured at 23° C., and the results were evaluated according to the following criteria.
Evaluation A: 10% by weight or more
Evaluation B: 3% by weight or more and less than 10% by weight
Evaluation C: less than 3% by weight

Pyrolysis temperature = format: physicochemical; conditions: thermogravimetric measurement (TG); nitrogen stream, 10° C./min
Description: An EXSTAR 6000 DSC apparatus manufactured by SII NanoTechnology Inc. was used, and about 5 mg of a sample was placed in an unsealed aluminum container and heated to 500° C. at a rate of temperature rise of 10° C./min in a nitrogen gas (30 ml/min) stream. In this time, a temperature at which a reducing portion appeared on the base line was defined as a pyrolysis temperature (Tg).

With Oc1ccc2c3c(ccc2c1)Oc1ccc2cc(O)ccc2c1C3c1cc(C2c3c(ccc4cc(O)ccc34)Oc3ccc4cc(O)ccc4c32)cc(C2c3c(ccc4cc(O)ccc34)Oc3ccc4cc(O)ccc4c32)c1 [BisN-14] the “solubility in PGME and PGMEA (Evaluation)” value (from here on “solubility … (Evaluation)”) [1] was “B (3% by weight or more and less than 10% by weight)” and the pyrolysis temperature (Pyrolysis temperature) was 410 °C.
In the case of Oc1ccc2c3c(ccc2c1)Oc1ccc2cc(O)ccc2c1C3c1ccc(C2c3c(ccc4cc(O)ccc34)Oc3ccc4cc(O)ccc4c32)cc1 [BisN-12], the “solubility … (Evaluation)” value [1] is reported as “B (3% by weight or more and less than 10% by weight)” and the pyrolysis temperature (Pyrolysis temperature) is reported as 410 °C.
With Oc1cc2ccccc2c2c1Oc1c(O)cc3ccccc3c1C2c1ccc(-c2ccccc2)cc1 [BisN-6] the “solubility … (Evaluation)” value [1] was “B (3% by weight or more and less than 10% by weight)” and the pyrolysis temperature (Pyrolysis temperature) was 410 °C.
In the case of Oc1ccc2c3c(ccc2c1)Oc1ccc2cc(O)ccc2c1C3c1cc2ccccc2c2ccccc12 [BisN-8], the “solubility … (Evaluation)” value [1] is reported as “B (3% by weight or more and less than 10% by weight)” and the pyrolysis temperature (Pyrolysis temperature) is reported as 415 °C.
For Oc1ccc2ccc3c(c2c1)C(c1ccc(-c2ccccc2)cc1)c1c(ccc2ccc(O)cc12)O3 [BisN-2], the “solubility … (Evaluation)” value [1] was “B (3% by weight or more and less than 10% by weight)” and the pyrolysis temperature (Pyrolysis temperature) was 410 °C.
For Oc1cccc2c3c(ccc12)C(c1ccc(-c2ccccc2)cc1)c1ccc2c(O)cccc2c1O3 [BisN-3], the “solubility … (Evaluation)” value [1] was “B (3% by weight or more and less than 10% by weight)” and the pyrolysis temperature (Pyrolysis temperature) was 410 °C.
With Oc1ccc2c3c(ccc2c1)Oc1ccc2cc(O)ccc2c1C31c2ccccc2-c2ccccc21 [BisN-11] the “solubility … (Evaluation)” value [1] was “B (3% by weight or more and less than 10% by weight)” and the pyrolysis temperature (Pyrolysis temperature) was 450 °C.
In the case of Oc1ccc2c3c(ccc2c1)Oc1ccc2cc(O)ccc2c1C3c1ccc(-c2ccc(C3c4c(ccc5cc(O)ccc45)Oc4ccc5cc(O)ccc5c43)cc2)cc1 [BisN-13], the “solubility … (Evaluation)” value [1] is reported as “B (3% by weight or more and less than 10% by weight)” and the pyrolysis temperature (Pyrolysis temperature) is reported as 410 °C.
In the case of Oc1ccc2c3c(ccc2c1)Oc1ccc2cc(O)ccc2c1C3c1cccc2ccccc12 [BisN-7], the “solubility … (Evaluation)” value [1] is reported as “B (3% by weight or more and less than 10% by weight)” and the pyrolysis temperature (Pyrolysis temperature) is reported as 415 °C.
With Oc1ccc2c3c(ccc2c1)Oc1ccc2cc(O)ccc2c1C3c1ccc2ccc3cccc4ccc1c2c34 [BisN-9] the “solubility … (Evaluation)” value [1] was “B (3% by weight or more and less than 10% by weight)” and the pyrolysis temperature (Pyrolysis temperature) was 420 °C.
For Oc1ccc2c3c(ccc2c1)Oc1ccc2cc(O)ccc2c1C3c1ccc(-c2ccccc2)cc1 [BisN-1], the “solubility in PGME and PGMEA” value ([1]; 1-methoxy-2-propanol (PGME) and propylene glycol monomethyl ether acetate (PGMEA)) was at least 20 % by weight, the “solubility … (Evaluation)” value [1] was “A (10% by weight or more)” and the pyrolysis temperature (Pyrolysis temperature) was 410 °C.
With Oc1ccc2ccc3c(c2c1)Oc1c(ccc2ccc(O)cc12)C3c1ccc(-c2ccccc2)cc1 [BisN-5] the “solubility … (Evaluation)” value [1] was “B (3% by weight or more and less than 10% by weight)” and the pyrolysis temperature (Pyrolysis temperature) was 410 °C.
With Oc1cccc2c3c(ccc12)Oc1ccc2c(O)cccc2c1C3c1ccc(-c2ccccc2)cc1 [BisN-4] the “solubility … (Evaluation)” value [1] was “B (3% by weight or more and less than 10% by weight)” and the pyrolysis temperature (Pyrolysis temperature) was 410 °C.
With Oc1ccc2c3c(ccc2c1)Oc1ccc2cc(O)ccc2c1C31CCCCC1 [BisN-10] the “solubility … (Evaluation)” value [1] was “B (3% by weight or more and less than 10% by weight)” and the pyrolysis temperature (Pyrolysis temperature) was 400 °C.
